According to patent US7713971B2, “1,2,4-triazine derivatives, preparation and use thereof in human therapy” (Pierre Fabre Medicament, priority 2005, dated 2010):
Read-outs that look alike come from different tables or passages of the source.

Tests used:
human PPARγ = molecular target: T1, human PPARγ (Homo sapiens, UniProt P37231); assay: Reporter gene transactivation, hPPAR-GAL4 gamma; type: cell-based; details: transfected Cos-7 cells, Gal-4 luciferase reporter, 24 hours treatment
T1 construct: expressed in transfected cells; host or cells: Cos-7 cells (ATCC, CRL-1651)
T1 sequence (P37231 238-503 limits assumed): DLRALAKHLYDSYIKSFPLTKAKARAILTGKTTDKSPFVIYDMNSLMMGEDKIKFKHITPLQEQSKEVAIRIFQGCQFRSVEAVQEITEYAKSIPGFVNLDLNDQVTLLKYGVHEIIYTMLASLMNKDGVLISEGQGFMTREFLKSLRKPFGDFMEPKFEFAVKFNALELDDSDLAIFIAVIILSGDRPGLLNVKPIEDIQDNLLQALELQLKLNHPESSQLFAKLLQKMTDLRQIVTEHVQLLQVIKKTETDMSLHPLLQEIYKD

human PPARα = molecular target: T2, human PPARα (Homo sapiens, UniProt Q07869); assay: Reporter gene transactivation, hPPAR-GAL4 alpha; type: cell-based; details: transfected Cos-7 cells, Gal-4 luciferase reporter, 24 hours treatment
T2 construct: expressed in transfected cells; host or cells: Cos-7 cells (ATCC, CRL-1651)
T2 sequence (Q07869 239-466 limits assumed): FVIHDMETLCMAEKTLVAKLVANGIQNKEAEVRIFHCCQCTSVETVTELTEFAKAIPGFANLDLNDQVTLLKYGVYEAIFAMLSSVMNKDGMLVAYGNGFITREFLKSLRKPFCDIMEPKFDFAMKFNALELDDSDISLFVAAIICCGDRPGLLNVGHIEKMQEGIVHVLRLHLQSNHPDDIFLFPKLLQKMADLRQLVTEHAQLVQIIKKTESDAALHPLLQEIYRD

[1] = tested on: insulin-resistant male rat (Ico: ZUCKER-fa/fa); assay: Normalization of metabolic parameters (cholesterol, plasma triglycerides) in insulin-resistant rat; type: in vivo; details: oral route, once per day for four days, Zucker fa/fa rat unfed 16-18 hours; for change in vivo at 10 mg/kg / change in vivo at 2.5 mg/kg: 96 h
Experimental: Normalization of metabolic parameters (cholesterol, plasma triglycerides) in an insulin-resistant male rat (Ico: ZUCKER-fa/fa), unfed for 16-18 hours, after treatment by oral route, once per day for four days, with the compounds to be evaluated or their administration vehicle.
These metabolic parameters are measured by spectrophotometry at the beginning and the end of each animal's treatment.

[2] = at 10 mg/kg, read-out: Plasma cholesterol
[3] = at 10 mg/kg, read-out: Plasma triglycerides
[4] = at 2.5 mg/kg, read-out: Plasma cholesterol
[5] = at 2.5 mg/kg, read-out: Plasma triglycerides

SMILES	EC50 (human PPARγ) [nM]	EC50 (human PPARα) [nM]	change in vivo at 10 mg/kg [1, 2] [%]	change in vivo at 10 mg/kg [1, 3] [%]	Plasma triglycerides ([1]; at 10 mg/kg)	change in vivo at 2.5 mg/kg [1, 4] [%]	change in vivo at 2.5 mg/kg [1, 5] [%]	Plasma triglycerides ([1]; at 2.5 mg/kg)	Plasma cholesterol ([1]; at 10 mg/kg)
CCCCCCCn1c(=O)c(NCCCOc2ccc(OC(C)(C)C(=O)OCC)cc2)nn(C)c1=O [Example 47, Ethyl 2-{4-[3-(4-heptyl-4-methyl-3,5-dioxo-2,3,4,5-tetrahydro-[1,2,4]triazin-6-ylamino)-propoxy]-phenoxy}-2-methyl-propionate]	~300	~300	-25	-45					
CCOC(=O)C(C)(C)Oc1cccc(CCCCCNc2nn(CCCC(F)(F)F)c(=O)n(CCCC(F)(F)F)c2=O)c1 [Example 92, Ethyl 2-(3-{5-[3,5-dioxo-2,4-bis-(4,4,4-trifluoro-butyl)-2,3,4,5-tetrahydro-[1,2,4]triazin-6-ylamino]-pentyl}-phenoxy)-2-methyl-propionate]	3000 to 10000	3 to 10	-18		inactive at 10				
CCCCCCCn1c(=O)c(NCCc2ccc(SC(C)(C)C(=O)O)cc2)nn(CCCC(F)(F)F)c1=O [Example 123, 2-(4-{2-[4-Heptyl-3,5-dioxo-2-(4,4,4-trifluoro-butyl)-2,3,4,5-tetrahydro-[1,2,4]triazin-6-ylamino]-ethyl}-phenylsulfanyl)-2-methyl-propionic Acid]	~10000	100 to 300	-14	-20		-8	-6		
CCOC(=O)C(C)(C)Oc1cccc(CCCCCOc2nn(C)c(=O)n(CCCC(F)(F)F)c2=O)c1 [Example 16, Ethyl 2-methyl-2-(3-{5-[2-methyl-3,5-dioxo-4-(4,4,4-trifluoro-butyl)-2,3,4,5-tetrahydro-[1,2,4]triazin-6-yloxy]-pentyl}-phenoxy)-propionate]	3000 to 10000	~100	-25	-15		-14		inactive at 2.5	
CCCCCCCn1nc(NCCc2ccc(SC(C)(C)C(=O)OCC)cc2)c(=O)n(C)c1=O [Example 119, Ethyl 2-{4-[2-(2-heptyl-4-methyl-3,5-dioxo-2,3,4,5-tetrahydro-[1,2,4]triazin-6-ylamino)-ethyl]-phenylsulfanyl}-2-methyl-propionate]	300	300	-32	-29		-21		active at 2.5	
CCCCCCCn1c(=O)c(NCCCc2cccc(OC(C)(C)C(=O)OCC)c2)nn(CCCC(F)(F)F)c1=O [Example 68, Ethyl 2-(3-{3-[4-heptyl-3,5-dioxo-2-(4,4,4-trifluoro-butyl)-2,3,4,5-tetrahydro-[1,2,4]triazin-6-ylamino]-propyl}-phenoxy)-2-methyl-propionate]	3000 to 10000	100 to 300	-21		active at 10 mg/kg				
CCCCCCCn1c(=O)c(OCCCCCc2cccc(OC(C)(C)C(=O)OCC)c2)nn(C)c1=O [Example 17, Ethyl 2-{3-[5-(4-heptyl-2-methyl-3,5-dioxo-2,3,4,5-tetrahydro-[1,2,4]triazin-6-yloxy)-pentyl]-phenoxy}-2-methyl-propionate]	~300	300 to 1000		-37					active at 10
CCCCCCCn1c(=O)c(NCCCCc2cccc(OC(C)(C)C(=O)OCC)c2)nn(CCCC(F)(F)F)c1=O [Example 85, Ethyl 2-(3-{4-[4-heptyl-3,5-dioxo-2-(4,4,4-trifluoro-butyl)-2,3,4,5-tetrahydro-[1,2,4]triazin-6-ylamino]-butyl}-phenoxy)-2-methyl-propionate]	1000 to 3000	~30	-21		active at 10 mg/kg				
CCOC(=O)C(C)(C)Sc1cccc(CCCCNc2nn(C)c(=O)n(CCCC(F)(F)F)c2=O)c1 [Example 95]	> 10000	1000 to 3000	-40		inactive at .10	-18			
CCCCCCCn1nc(NCCCOc2ccc(OC(C)(C)C(=O)OCC)cc2)c(=O)n(C)c1=O [Example 45, Ethyl 2-{4-[3-(2-heptyl-4-methyl-3,5-dioxo-2,3,4,5-tetrahydro-[1,2,4]triazin-6-ylamino)-propoxy]-phenoxy}-2-methyl-propionate]	~3000	1000 to 3000	-16		inactive at 10				
CCOC(=O)C(C)(C)Oc1cccc(CCCCNc2nn(CCC#N)c(=O)n(CCCC(F)(F)F)c2=O)c1 [Example 81, Ethyl 2-(3-{4-[2-(2-cyano-ethyl)-3,5-dioxo-4-(4,4,4-trifluoro-butyl)-2,3,4,5-tetrahydro-[1,2,4]triazin-6-ylamino]-butyl}-phenoxy)-2-methyl-propionate]	> 10000	300 to 1000	-12	-17					
Cn1nc(NCCCCc2cccc(OC(C)(C)C(=O)O)c2)c(=O)n(CCCC(F)(F)F)c1=O [Example 79, 2-Methyl-2-(3-{4-[2-methyl-3,5-dioxo-4-(4,4,4-trifluoro-butyl)-2,3,4,5-tetrahydro-[1,2,4]triazin-6-ylamino]-butyl}-phenoxy)-propionic Acid]	3000 to 10000	~30				-32	-55		
CCOC(=O)C(C)(C)Oc1cccc(CCCNc2nn(C)c(=O)n(CCCC(F)(F)F)c2=O)c1 [Example 65, Ethyl 2-methyl-2-(3-{3-[2-methyl-3,5-dioxo-4-(4,4,4-trifluoro-butyl)-2,3,4,5-tetrahydro-[1,2,4]triazin-6-ylamino]-propyl}-phenoxy)-propionate]	> 10000	100 to 300	-23	-13		-13		inactive at 2.5	
CCCCCCCn1nc(NCCCCc2cccc(OC(C)(C)C(=O)OCC)c2)c(=O)n(CCCC(F)(F)F)c1=O [Example 82, Ethyl 2-(3-{4-[2-heptyl-3,5-dioxo-4-(4,4,4-trifluoro-butyl)-2,3,4,5-tetrahydro-[1,2,4]triazin-6-ylamino]-butyl}-phenoxy)-2-methyl-propionate]	100 to 300	~10	-13		active at 10 mg/kg				
CCCCCCCn1nc(NCCc2ccc(SC(C)(C)C(=O)O)cc2)c(=O)n(C)c1=O [Example 120, 2-{4-[2-(2-Heptyl-4-methyl-3,5-dioxo-2,3,4,5-tetrahydro-[1,2,4]triazin-6-ylamino)-ethyl]-phenylsulfanyl}-2-methyl-propionic Acid]	1000 to 3000	300 to 1000	-33	-73		-32	-27		
CCOC(=O)C(C)(C)Oc1cccc(CCCCNc2nn(CCCC(F)(F)F)c(=O)n(C)c2=O)c1 [Example 74, Ethyl 2-methyl-2-(3-{4-[4-methyl-3,5-dioxo-2-(4,4,4-trifluoro-butyl)-2,3,4,5-tetrahydro-[1,2,4]triazin-6-ylamino]-butyl}-phenoxy)-propionate]	3000 to 10000	~1000	-29	-26		-18		inactive at 2.5	
CCOC(=O)C(C)(C)Oc1cccc(CCCCNc2nn(C)c(=O)n(CCCC(F)(F)F)c2=O)c1 [Example 77, Ethyl 2-methyl-2-(3-{4-[2-methyl-3,5-dioxo-4-(4,4,4-trifluoro-butyl)-2,3,4,5-tetrahydro-[1,2,4]triazin-6-ylamino]-butyl}-phenoxy)-propionate]	3000 to 10000	~300	-35		active at 10 mg/kg	-29			
CCCCCCCn1nc(NCCCc2cccc(OC(C)(C)C(=O)OCC)c2)c(=O)n(Cc2ccccc2)c1=O [Example 72, Ethyl 2-{3-[3-(4-Benzyl-2-heptyl-3,5-dioxo-2,3,4,5-tetrahydro-[1,2,4]triazin-6-ylamino)-propyl]-phenoxy}-2-methyl-propionate]	3000 to 10000	3000 to 10000	-21		inactive at 10				
